Results: ChEMBL document CHEMBL3046672, “Synthesis and bioevaluation of Schiff and Mannich bases of isatin derivatives with 4-amino-5-benzyl-2,4-dihydro-3H-1,2,4-triazole-3-thione” (2012)

Assays:
Type in all cases: functional
Conditions in all cases: read-out: DIZ
Bacillus subtilis [1] = assay: Antibacterial activity against Bacillus subtilis at 50 ug/ml
Candida albicans [2] = assay: Antifungal activity against Candida albicans at 100 ug/ml
Pseudomonas aeruginosa [3] = assay: Antibacterial activity against Pseudomonas aeruginosa at 200 ug/ml
Staphylococcus aureus [4] = assay: Antibacterial activity against Staphylococcus aureus at 50 ug/ml
Pseudomonas aeruginosa [5] = assay: Antibacterial activity against Pseudomonas aeruginosa at 50 ug/ml
Staphylococcus aureus [6] = assay: Antibacterial activity against Staphylococcus aureus at 100 ug/ml
Escherichia coli [7] = assay: Antibacterial activity against Escherichia coli at 200 ug/ml
Aspergillus niger [8] = assay: Antifungal activity against Aspergillus niger at 200 ug/ml
Aspergillus niger [9] = assay: Antifungal activity against Aspergillus niger at 100 ug/ml
Escherichia coli [10] = assay: Antibacterial activity against Escherichia coli at 100 ug/ml
Bacillus subtilis [11] = assay: Antibacterial activity against Bacillus subtilis at 100 ug/ml
Escherichia coli [12] = assay: Antibacterial activity against Escherichia coli at 50 ug/ml
Bacillus subtilis [13] = assay: Antibacterial activity against Bacillus subtilis at 200 ug/ml
Staphylococcus aureus [14] = assay: Antibacterial activity against Staphylococcus aureus at 200 ug/ml
Candida albicans [15] = assay: Antifungal activity against Candida albicans at 200 ug/ml
Pseudomonas aeruginosa [16] = assay: Antibacterial activity against Pseudomonas aeruginosa at 100 ug/ml
Candida albicans [17] = assay: Antifungal activity against Candida albicans at 50 ug/ml

SMILES	zone of inhibition at 50 µg/mL (Bacillus subtilis [1])	zone of inhibition at 100 µg/mL (Candida albicans [2])	zone of inhibition at 200 µg/mL (Pseudomonas aeruginosa [3])	zone of inhibition at 50 µg/mL (Staphylococcus aureus [4])	zone of inhibition at 50 µg/mL (Pseudomonas aeruginosa [5])	zone of inhibition at 100 µg/mL (Staphylococcus aureus [6])	zone of inhibition at 200 µg/mL (Escherichia coli [7])	zone of inhibition at 200 µg/mL (Aspergillus niger [8])	zone of inhibition at 100 µg/mL (Aspergillus niger [9])	zone of inhibition at 100 µg/mL (Escherichia coli [10])	zone of inhibition at 100 µg/mL (Bacillus subtilis [11])	zone of inhibition at 50 µg/mL (Escherichia coli [12])	zone of inhibition at 200 µg/mL (Bacillus subtilis [13])	zone of inhibition at 200 µg/mL (Staphylococcus aureus [14])	zone of inhibition at 200 µg/mL (Candida albicans [15])	zone of inhibition at 100 µg/mL (Pseudomonas aeruginosa [16])	zone of inhibition at 50 µg/mL (Candida albicans [17])
O=C1/C(=N\n2c(Cc3ccccc3)n[nH]c2=S)c2ccccc2N1CN1CCOCC1	9 mm	10 mm	22 mm	10 mm	9 mm	15 mm	23 mm	12 mm	9 mm	15 mm	13 mm	9 mm	20 mm	19 mm	15 mm	12 mm	
O=C1/C(=N\n2c(Cc3ccccc3)n[nH]c2=S)c2cc(Cl)ccc2N1CN1CCCCC1	9 mm	11 mm	21 mm	9 mm	10 mm	12 mm	25 mm	15 mm	9 mm	16 mm	13 mm	10 mm	22 mm	20 mm	16 mm	15 mm	9 mm
O=C1/C(=N\n2c(Cc3ccccc3)n[nH]c2=S)c2cc(Br)ccc2N1CN1CCOCC1	9 mm	10 mm	24 mm	9 mm	10 mm	13 mm	24 mm	12 mm	9 mm	16 mm	12 mm	9 mm	21 mm	20 mm	15 mm	15 mm	
OC(Cn1cncn1)(Cn1cncn1)c1ccc(F)cc1F [FLUCONAZOLE]								18 mm							20 mm		
O=C1/C(=N\n2c(Cc3ccccc3)n[nH]c2=S)c2cc(Cl)ccc2N1CN1CCOCC1	9 mm	10 mm	25 mm	9 mm	9 mm	14 mm	25 mm	17 mm	9 mm	16 mm	13 mm	11 mm	22 mm	20 mm	17 mm	15 mm	
CCN(CC)CN1C(=O)/C(=N\n2c(Cc3ccccc3)n[nH]c2=S)c2cc(Cl)ccc21	9 mm	9 mm	22 mm	9 mm	9 mm	12 mm	27 mm	12 mm	9 mm	17 mm	14 mm	11 mm	20 mm	21 mm	15 mm	16 mm	
O=C(O)c1cn(C2CC2)c2cc(N3CCNCC3)c(F)cc2c1=O [CIPROFLOXACIN]			28 mm				30 mm						25 mm	26 mm			
CCN(CC)CN1C(=O)/C(=N\n2c(Cc3ccccc3)n[nH]c2=S)c2cc(Br)ccc21	9 mm	10 mm	23 mm	9 mm	9 mm	14 mm	26 mm	13 mm	9 mm	16 mm	13 mm	10 mm	20 mm	20 mm	16 mm	14 mm	
O=C1Nc2ccccc2/C1=N/n1c(Cc2ccccc2)n[nH]c1=S	9 mm	9 mm	24 mm	10 mm	13 mm	16 mm	23 mm	14 mm	9 mm	19 mm	15 mm	12 mm	20 mm	22 mm	15 mm	16 mm	
O=C1/C(=N\n2c(Cc3ccccc3)n[nH]c2=S)c2cc(Br)ccc2N1CN1CCCCC1	10 mm	10 mm	22 mm	9 mm	10 mm	14 mm	25 mm	15 mm	9 mm	16 mm	15 mm	10 mm	20 mm	21 mm	16 mm	15 mm	
O=C1Nc2ccc(Cl)cc2/C1=N/n1c(Cc2ccccc2)n[nH]c1=S	9 mm	9 mm	25 mm		9 mm	11 mm	27 mm	12 mm	9 mm	18 mm	14 mm	11 mm	20 mm	23 mm	16 mm	13 mm	
O=C1Nc2ccc(Br)cc2/C1=N/n1c(Cc2ccccc2)n[nH]c1=S	9 mm	11 mm	25 mm	9 mm	10 mm	12 mm	27 mm	14 mm	10 mm	17 mm	15 mm	11 mm	20 mm	20 mm	17 mm	15 mm	
CCN(CC)CN1C(=O)/C(=N\n2c(Cc3ccccc3)n[nH]c2=S)c2ccccc21	9 mm	10 mm	20 mm	11 mm	9 mm	16 mm	22 mm	13 mm	9 mm	15 mm	13 mm	9 mm	20 mm	23 mm	17 mm	13 mm	
O=C1/C(=N\n2c(Cc3ccccc3)n[nH]c2=S)c2ccccc2N1CN1CCCCC1	9 mm	10 mm	20 mm	9 mm	10 mm	14 mm	23 mm	13 mm	9 mm	18 mm	12 mm	11 mm	20 mm	20 mm	16 mm	16 mm	
